Key:
[1] = target: Insulin receptor (Homo sapiens) (UniProt P06213); conditions: Compound concentration 1000.0 nM
[2] = target: Serine/threonine-protein kinase pim-3 (Homo sapiens) (UniProt Q86V86); conditions: Compound concentration 1000.0 nM
[3] = target: SRSF protein kinase 1 (Homo sapiens) (UniProt Q96SB4); conditions: Compound concentration 1000.0 nM
[4] = target: Phosphatidylinositol 4,5-bisphosphate 3-kinase catalytic subunit delta isoform (Homo sapiens) (UniProt O00329); conditions: Compound concentration 1000.0 nM
[5] = target: Serine/threonine-protein kinase MAK (Homo sapiens) (UniProt P20794); conditions: Compound concentration 1000.0 nM
[6] = target: Bone morphogenetic protein receptor type-2 (Homo sapiens) (UniProt Q13873); conditions: Compound concentration 1000.0 nM
[7] = target: Cyclin-dependent kinase 18 (Homo sapiens) (UniProt Q07002); conditions: Compound concentration 1000.0 nM
[8] = system: Tyrosine-protein kinase ABL1 (Homo sapiens), P00519 [H396P]; conditions: Compound concentration 1000.0 nM
[9] = system: Mast/stem cell growth factor receptor Kit (Homo sapiens), P10721 [V559D,V654A]; conditions: Compound concentration 1000.0 nM
[10] = target: Serine/threonine-protein kinase WNK2 (Homo sapiens) (UniProt Q9Y3S1); conditions: Compound concentration 1000.0 nM
[11] = target: Activin receptor type-2B (Homo sapiens) (UniProt Q13705); conditions: Compound concentration 1000.0 nM
[12] = system: Phosphatidylinositol 4,5-bisphosphate 3-kinase catalytic subunit alpha isoform (Homo sapiens), P42336 [M1043I]; conditions: Compound concentration 1000.0 nM
[13] = target: Mitogen-activated protein kinase kinase kinase 10 (Homo sapiens) (UniProt Q02779); conditions: Compound concentration 1000.0 nM
[14] = target: TGF-beta receptor type-1 (Homo sapiens) (UniProt P36897); conditions: Compound concentration 1000.0 nM
[15] = target: Serine/threonine-protein kinase RIO1 (Homo sapiens) (UniProt Q9BRS2); conditions: Compound concentration 1000.0 nM
[16] = target: Atypical kinase COQ8A, mitochondrial (Homo sapiens) (UniProt Q8NI60); conditions: Compound concentration 1000.0 nM
[17] = target: NUAK family SNF1-like kinase 1 (Homo sapiens) (UniProt O60285); conditions: Compound concentration 1000.0 nM
[18] = target: Aurora kinase A (Homo sapiens) (UniProt O14965); conditions: Compound concentration 1000.0 nM
[19] = target: Interleukin-1 receptor-associated kinase 4 (Homo sapiens) (UniProt Q9NWZ3); conditions: Compound concentration 1000.0 nM
[20] = system: Phosphatidylinositol 4,5-bisphosphate 3-kinase catalytic subunit alpha isoform (Homo sapiens), P42336 [E545K]; conditions: Compound concentration 1000.0 nM
[21] = target: 5-hydroxytryptamine receptor 2B (Homo sapiens) (UniProt P41595); conditions: Compound concentration 10.0 uM
[22] = target: Rho-associated protein kinase 1 (Homo sapiens) (UniProt Q13464); conditions: Compound concentration 1000.0 nM
[23] = target: Tyrosine-protein kinase ABL1 (Homo sapiens) (UniProt P00519); conditions: Compound concentration 1000.0 nM
[24] = target: Proto-oncogene tyrosine-protein kinase receptor Ret (Homo sapiens) (UniProt P07949); conditions: Compound concentration 1000.0 nM
[25] = target: Ribosomal protein S6 kinase alpha-1 (Homo sapiens) (UniProt Q15418); conditions: Compound concentration 1000.0 nM
[26] = target: Cyclin-dependent kinase 2 (Homo sapiens) (UniProt P24941); conditions: Compound concentration 1000.0 nM
[27] = target: Serine/threonine-protein kinase tousled-like 1 (Homo sapiens) (UniProt Q9UKI8); conditions: Compound concentration 1000.0 nM
[28] = target: Tyrosine-protein kinase ABL1 (Homo sapiens) (UniProt P00519); conditions: Compound concentration 1000.0 nM; remark: listed apart in the source
[29] = target: 5-hydroxytryptamine receptor 1B (Homo sapiens) (UniProt P28222); conditions: Compound concentration 10.0 uM
[30] = system: Epidermal growth factor receptor (Homo sapiens), P00533 [G719S]; conditions: Compound concentration 1000.0 nM
[31] = target: Eukaryotic translation initiation factor 2-alpha kinase 1 (Homo sapiens) (UniProt Q9BQI3); conditions: Compound concentration 1000.0 nM
[32] = target: Receptor-type tyrosine-protein kinase FLT3 (Homo sapiens) (UniProt P36888); conditions: Compound concentration 1000.0 nM
[33] = target: Ribosomal protein S6 kinase alpha-4 (Homo sapiens) (UniProt O75676); conditions: Compound concentration 1000.0 nM
[34] = system: eIF-2-alpha kinase GCN2 (Homo sapiens), Q9P2K8 [S808G]; conditions: Compound concentration 1000.0 nM
[35] = target: Cyclin-dependent kinase 11B (Homo sapiens) (UniProt P21127); conditions: Compound concentration 1000.0 nM
[36] = target: Serine/threonine-protein kinase PRP4 homolog (Homo sapiens) (UniProt Q13523); conditions: Compound concentration 1000.0 nM
[37] = target: Fibroblast growth factor receptor 2 (Homo sapiens) (UniProt P21802); conditions: Compound concentration 1000.0 nM
[38] = system: Receptor-type tyrosine-protein kinase FLT3 (Homo sapiens), P36888 [UNDEFINED MUTATION]; conditions: Compound concentration 1000.0 nM
[39] = target: STE20-like serine/threonine-protein kinase (Homo sapiens) (UniProt Q9H2G2); conditions: Compound concentration 1000.0 nM
[40] = target: Interleukin-1 receptor-associated kinase 1 (Homo sapiens) (UniProt P51617); conditions: Compound concentration 1000.0 nM
[41] = target: Death-associated protein kinase 1 (Homo sapiens) (UniProt P53355); conditions: Compound concentration 1000.0 nM
[42] = target: Serine/threonine-protein kinase TBK1 (Homo sapiens) (UniProt Q9UHD2); conditions: Compound concentration 1000.0 nM
[43] = target: Cyclin-dependent kinase 4 (Homo sapiens) (UniProt P11802); conditions: Compound concentration 1000.0 nM
[44] = target: Calcium/calmodulin-dependent protein kinase type 1G (Homo sapiens) (UniProt Q96NX5); conditions: Compound concentration 1000.0 nM
[45] = system: Receptor-type tyrosine-protein kinase FLT3 (Homo sapiens), P36888 [K663Q]; conditions: Compound concentration 1000.0 nM

Chain of eIF-2-alpha kinase GCN2 (Homo sapiens), Q9P2K8 [S808G] (Q9P2K8 whole entry S808G): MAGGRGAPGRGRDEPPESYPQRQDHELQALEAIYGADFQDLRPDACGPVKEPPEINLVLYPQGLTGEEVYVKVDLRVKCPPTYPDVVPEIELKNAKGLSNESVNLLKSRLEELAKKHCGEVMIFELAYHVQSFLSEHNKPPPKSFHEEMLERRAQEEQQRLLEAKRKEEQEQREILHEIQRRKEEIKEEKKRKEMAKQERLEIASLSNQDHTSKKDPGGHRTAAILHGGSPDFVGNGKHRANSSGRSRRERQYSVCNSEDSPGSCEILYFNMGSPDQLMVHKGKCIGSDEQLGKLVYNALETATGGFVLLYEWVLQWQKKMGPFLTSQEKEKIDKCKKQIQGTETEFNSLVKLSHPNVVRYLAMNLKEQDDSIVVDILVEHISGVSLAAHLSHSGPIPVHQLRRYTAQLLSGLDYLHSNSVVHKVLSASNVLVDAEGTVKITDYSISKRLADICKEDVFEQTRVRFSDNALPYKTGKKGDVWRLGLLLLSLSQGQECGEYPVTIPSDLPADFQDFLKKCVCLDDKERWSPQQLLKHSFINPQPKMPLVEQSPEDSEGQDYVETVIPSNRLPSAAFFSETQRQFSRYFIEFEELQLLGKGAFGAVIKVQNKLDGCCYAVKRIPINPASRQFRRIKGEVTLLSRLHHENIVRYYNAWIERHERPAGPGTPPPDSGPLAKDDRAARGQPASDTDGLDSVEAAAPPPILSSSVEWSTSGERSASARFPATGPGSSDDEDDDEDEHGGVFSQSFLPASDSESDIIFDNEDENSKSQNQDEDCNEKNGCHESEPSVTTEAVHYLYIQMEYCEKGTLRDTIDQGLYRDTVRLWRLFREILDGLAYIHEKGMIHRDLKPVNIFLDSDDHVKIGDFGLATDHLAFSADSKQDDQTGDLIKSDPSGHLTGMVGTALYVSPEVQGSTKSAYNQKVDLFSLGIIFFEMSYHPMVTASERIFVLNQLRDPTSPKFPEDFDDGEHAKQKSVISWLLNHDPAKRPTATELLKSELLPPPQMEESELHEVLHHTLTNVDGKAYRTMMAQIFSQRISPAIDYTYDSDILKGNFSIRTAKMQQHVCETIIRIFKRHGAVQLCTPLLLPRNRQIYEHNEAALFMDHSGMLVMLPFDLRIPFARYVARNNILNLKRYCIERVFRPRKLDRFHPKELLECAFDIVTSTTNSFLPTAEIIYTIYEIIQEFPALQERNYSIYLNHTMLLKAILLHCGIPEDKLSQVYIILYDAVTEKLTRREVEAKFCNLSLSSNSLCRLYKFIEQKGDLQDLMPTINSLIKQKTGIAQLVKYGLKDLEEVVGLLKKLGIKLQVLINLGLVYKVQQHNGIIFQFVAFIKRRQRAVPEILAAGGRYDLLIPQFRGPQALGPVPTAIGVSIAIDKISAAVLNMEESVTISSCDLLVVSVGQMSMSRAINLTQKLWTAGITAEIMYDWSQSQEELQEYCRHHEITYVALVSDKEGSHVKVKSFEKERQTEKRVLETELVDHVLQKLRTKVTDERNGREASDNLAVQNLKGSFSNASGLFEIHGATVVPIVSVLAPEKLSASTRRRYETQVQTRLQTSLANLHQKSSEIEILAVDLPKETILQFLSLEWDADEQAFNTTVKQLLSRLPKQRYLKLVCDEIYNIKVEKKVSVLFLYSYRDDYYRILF
Chain of Phosphatidylinositol 4,5-bisphosphate 3-kinase catalytic subunit alpha isoform (Homo sapiens), P42336 [M1043I] (P42336 whole entry M1043I, canonical isoform): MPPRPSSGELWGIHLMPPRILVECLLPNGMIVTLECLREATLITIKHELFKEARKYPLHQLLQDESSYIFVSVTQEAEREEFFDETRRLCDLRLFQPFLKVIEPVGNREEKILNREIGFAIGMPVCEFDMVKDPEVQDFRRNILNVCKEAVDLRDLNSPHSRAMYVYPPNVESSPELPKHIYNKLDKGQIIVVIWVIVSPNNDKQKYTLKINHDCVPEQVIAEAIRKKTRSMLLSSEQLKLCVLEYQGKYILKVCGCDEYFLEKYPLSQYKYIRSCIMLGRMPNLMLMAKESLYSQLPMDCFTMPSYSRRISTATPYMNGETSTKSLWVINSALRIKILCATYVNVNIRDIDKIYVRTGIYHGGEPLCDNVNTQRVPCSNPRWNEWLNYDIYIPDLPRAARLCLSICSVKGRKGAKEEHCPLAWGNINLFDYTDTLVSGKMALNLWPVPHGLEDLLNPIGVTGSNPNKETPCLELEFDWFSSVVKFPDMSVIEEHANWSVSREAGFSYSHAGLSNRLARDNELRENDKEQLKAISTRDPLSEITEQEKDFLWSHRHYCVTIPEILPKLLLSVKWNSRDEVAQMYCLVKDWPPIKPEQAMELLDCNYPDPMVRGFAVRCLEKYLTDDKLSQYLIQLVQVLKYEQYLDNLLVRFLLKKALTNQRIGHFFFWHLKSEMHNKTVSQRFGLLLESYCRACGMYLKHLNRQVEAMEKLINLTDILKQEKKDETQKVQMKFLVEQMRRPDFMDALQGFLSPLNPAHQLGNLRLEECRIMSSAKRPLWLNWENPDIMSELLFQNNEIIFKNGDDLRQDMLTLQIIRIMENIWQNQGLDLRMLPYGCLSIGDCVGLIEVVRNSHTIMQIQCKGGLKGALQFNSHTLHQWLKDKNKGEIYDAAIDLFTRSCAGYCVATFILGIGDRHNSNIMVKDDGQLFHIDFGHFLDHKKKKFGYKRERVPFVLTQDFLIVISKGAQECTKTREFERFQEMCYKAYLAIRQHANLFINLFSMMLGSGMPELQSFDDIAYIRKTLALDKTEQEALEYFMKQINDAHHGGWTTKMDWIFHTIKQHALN
Chain of Aurora kinase A (Homo sapiens) (O14965 whole entry): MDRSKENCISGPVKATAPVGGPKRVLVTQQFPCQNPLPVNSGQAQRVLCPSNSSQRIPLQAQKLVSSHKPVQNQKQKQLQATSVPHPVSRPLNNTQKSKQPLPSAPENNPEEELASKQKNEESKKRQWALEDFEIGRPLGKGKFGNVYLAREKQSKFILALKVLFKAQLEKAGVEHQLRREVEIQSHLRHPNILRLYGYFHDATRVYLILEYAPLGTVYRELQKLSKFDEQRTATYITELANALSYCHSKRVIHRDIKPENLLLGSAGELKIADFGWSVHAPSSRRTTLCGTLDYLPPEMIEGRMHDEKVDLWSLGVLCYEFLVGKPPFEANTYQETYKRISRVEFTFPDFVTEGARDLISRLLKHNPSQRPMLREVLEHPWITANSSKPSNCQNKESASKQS
Chain of Interleukin-1 receptor-associated kinase 1 (Homo sapiens) (P51617 whole entry, looked up): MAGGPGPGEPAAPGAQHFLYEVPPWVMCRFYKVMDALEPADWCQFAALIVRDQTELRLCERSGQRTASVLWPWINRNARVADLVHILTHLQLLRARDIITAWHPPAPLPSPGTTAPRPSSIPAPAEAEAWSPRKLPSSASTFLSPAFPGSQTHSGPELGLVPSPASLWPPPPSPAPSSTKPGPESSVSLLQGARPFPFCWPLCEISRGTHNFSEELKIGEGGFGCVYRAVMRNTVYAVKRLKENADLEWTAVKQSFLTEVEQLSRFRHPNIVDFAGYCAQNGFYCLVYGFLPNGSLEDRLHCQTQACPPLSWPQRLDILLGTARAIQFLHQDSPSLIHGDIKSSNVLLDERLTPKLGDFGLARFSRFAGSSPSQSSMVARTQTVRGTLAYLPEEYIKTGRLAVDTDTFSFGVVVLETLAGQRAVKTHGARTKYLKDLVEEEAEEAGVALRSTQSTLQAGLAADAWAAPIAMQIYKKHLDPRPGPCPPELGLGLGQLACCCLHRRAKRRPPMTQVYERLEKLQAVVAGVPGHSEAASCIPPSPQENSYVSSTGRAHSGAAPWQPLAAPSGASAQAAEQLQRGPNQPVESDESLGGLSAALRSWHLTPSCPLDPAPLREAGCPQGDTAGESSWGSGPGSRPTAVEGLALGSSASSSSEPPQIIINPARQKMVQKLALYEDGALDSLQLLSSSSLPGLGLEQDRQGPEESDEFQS
Chain of Serine/threonine-protein kinase PRP4 homolog (Homo sapiens) (Q13523 whole entry): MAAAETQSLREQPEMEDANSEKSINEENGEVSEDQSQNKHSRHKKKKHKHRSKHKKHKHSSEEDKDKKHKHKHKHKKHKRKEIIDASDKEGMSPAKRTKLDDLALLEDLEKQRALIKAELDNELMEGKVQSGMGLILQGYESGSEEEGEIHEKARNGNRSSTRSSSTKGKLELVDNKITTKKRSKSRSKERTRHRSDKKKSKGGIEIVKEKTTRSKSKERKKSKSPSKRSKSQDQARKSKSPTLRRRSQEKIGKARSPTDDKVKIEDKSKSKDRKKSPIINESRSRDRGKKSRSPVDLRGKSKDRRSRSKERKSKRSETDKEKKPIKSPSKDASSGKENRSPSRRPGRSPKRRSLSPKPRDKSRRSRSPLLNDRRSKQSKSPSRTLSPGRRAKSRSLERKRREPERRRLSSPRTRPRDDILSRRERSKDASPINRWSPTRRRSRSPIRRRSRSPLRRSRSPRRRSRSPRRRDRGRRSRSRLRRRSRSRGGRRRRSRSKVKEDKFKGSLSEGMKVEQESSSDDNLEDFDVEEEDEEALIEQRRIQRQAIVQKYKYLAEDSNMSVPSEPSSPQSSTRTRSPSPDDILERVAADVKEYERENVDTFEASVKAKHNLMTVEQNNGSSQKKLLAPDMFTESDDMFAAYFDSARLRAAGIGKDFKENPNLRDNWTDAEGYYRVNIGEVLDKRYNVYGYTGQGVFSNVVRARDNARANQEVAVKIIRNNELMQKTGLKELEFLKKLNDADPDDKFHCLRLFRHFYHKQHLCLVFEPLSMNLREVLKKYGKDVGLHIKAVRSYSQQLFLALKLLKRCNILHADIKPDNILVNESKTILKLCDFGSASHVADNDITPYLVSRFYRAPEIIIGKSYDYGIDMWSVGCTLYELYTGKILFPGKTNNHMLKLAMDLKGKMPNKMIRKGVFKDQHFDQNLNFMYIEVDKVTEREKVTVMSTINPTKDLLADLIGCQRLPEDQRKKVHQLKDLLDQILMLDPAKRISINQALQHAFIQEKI
Chain of Phosphatidylinositol 4,5-bisphosphate 3-kinase catalytic subunit alpha isoform (Homo sapiens), P42336 [E545K] (P42336 whole entry E545K, canonical isoform): as the sequence (P42336 whole entry M1043I, canonical isoform) above, with E545K, I1043M counted along it

Structure (SMILES): NS(=O)(=O)c1cc(NC(=O)C2(c3ccccc3Cl)CC2)ccc1Oc1cccc(Cl)c1 [BAY-207]
- residual activity [1]: 100%
- residual activity [2]: 88%
- residual activity [3]: 71%
- residual activity [4]: 99%
- residual activity [5]: 89%
- residual activity [6]: 100%
- residual activity [7]: 69%
- residual activity [8]: 93%
- residual activity [9]: 100%
- residual activity [10]: 88%
- residual activity [11]: 90%
- residual activity [12]: 98%
- residual activity [13]: 100%
- residual activity [14]: 82%
- residual activity [15]: 84%
- residual activity [16]: 100%
- residual activity [17]: 95%
- residual activity [18]: 100%
- residual activity [19]: 61%
- residual activity [20]: 96%
- inhibition [21]: 21.1%
- residual activity [22]: 100%
- residual activity [23]: 64%
- residual activity [24]: 84%
- residual activity [25]: 100%
- residual activity [26]: 82%
- residual activity [27]: 99%
- residual activity [28]: 88%
- inhibition [29]: 4.81%
- residual activity [30]: 98%
- residual activity [31]: 95%
- residual activity [32]: 100%
- residual activity [33]: 70%
- residual activity [34]: 76%
- residual activity [35]: 83%
- residual activity [36]: 68%
- residual activity [37]: 100%
- residual activity [38]: 100%
- residual activity [39]: 79%
- residual activity [40]: 79%
- residual activity [41]: 98%
- residual activity [42]: 62%
- residual activity [43]: 100%
- residual activity [44]: 100%
- residual activity [45]: 100%

Structure (SMILES): NS(=O)(=O)c1cc(NC(=O)Cc2ccccc2)ccc1Oc1cccc(Cl)c1 [BAY-1797]
- residual activity [1]: 100%
- residual activity [2]: 96%
- residual activity [3]: 62%
- residual activity [4]: 93%
- residual activity [5]: 100%
- residual activity [6]: 73%
- residual activity [7]: 100%
- residual activity [8]: 73%
- residual activity [9]: 100%
- residual activity [10]: 0%
- residual activity [11]: 75%
- residual activity [12]: 93%
- residual activity [13]: 98%
- residual activity [14]: 100%
- residual activity [15]: 93%
- residual activity [16]: 94%
- residual activity [17]: 100%
- residual activity [18]: 69%
- residual activity [19]: 91%
- residual activity [20]: 77%
- inhibition [21]: 30.2%
- residual activity [22]: 88%
- residual activity [23]: 78%
- residual activity [24]: 100%
- residual activity [25]: 75%
- residual activity [26]: 100%
- residual activity [27]: 99%
- residual activity [28]: 75%
- inhibition [29]: -2.93%
- residual activity [30]: 74%
- residual activity [31]: 83%
- residual activity [32]: 100%
- residual activity [33]: 100%
- residual activity [34]: 100%
- residual activity [35]: 71%
- residual activity [36]: 97%
- residual activity [37]: 61%
- residual activity [38]: 79%
- residual activity [39]: 66%
- residual activity [40]: 73%
- residual activity [41]: 90%
- residual activity [42]: 68%
- residual activity [43]: 88%
- residual activity [44]: 84%
- residual activity [45]: 99%

From ChEMBL document CHEMBL4507265 (2021)
